Source: a melting point compilation (Tetko et al.; mined from patent text by program, amines drawn as free bases though some values may be those of a salt)

SMILES | melting point [°C]
CCn1c(=O)c2c(nc(/C=C/c3ccc(OC)c(OC)c3OC)n2C)n(CC)c1=O | 153 to 154
O=C(O)C(Cl)=C(Cl)C(=O)N(CCCl)CCCl | 107 to 110
CC(C)(C)OC(=O)N1CCc2cc3ccccc3n2CC1 | 129 to 132
Cc1c(C(C)CC(=O)O)n(Cc2ccc(Cl)cc2)c2ccc(F)cc12 (stereo not given) | 143
CC1(c2c[nH]cn2)CCCCC1 | 73 to 75
COc1ccc(C(=O)N[C@H](Cc2ccc(C(F)(F)F)cc2)[C@@H](O)c2ccc(F)cc2)cc1 (racemic) | 192 to 193
CCOC(=O)c1cnc2nc(C(F)(F)F)ccc2c1O | > 250
CCCc1cccc(C(C)(C)C)c1O | 89 to 90
Oc1cccc(CC2c3ccccc3CCc3ccccc32)c1 | 76.6
COc1ccc(C(=O)C2=C(O)C(=O)N(c3nnc(C)s3)C2c2ccc(C#N)cc2)cc1 (stereo not given) | 185
CS(=O)(=O)c1ccc(-n2cc(-c3cccc(Cl)c3)nc2-c2ccc(Cl)cc2)cc1 | 156 to 159
CC(=O)Nc1c(C(=O)c2ccccc2)[nH]c2cccc(Cl)c12 | 221 to 222
COC(=O)c1cn(C2CC2)c2c(OC)c(N3CCC(CN)(CF)C3)c(F)cc2c1=O (stereo not given) | 143 to 145
O=C1CC(c2cccs2)=Nc2ccc(-c3ccc(=O)[nH]c3)cc2N1 | > 250
CC1(C)Cc2sccc2C1N (stereo not given) | 80
O=C(Nc1nc2ccc(Sc3cnc4ccc(-c5cccc(F)c5)cn34)cc2s1)C1CC1 | > 260
CCOC(=O)c1cn(C)c2cnc3c(F)c(Cl)c(N4CCN(c5ccc(C)c(F)c5)CC4)cc3c2c1=O | 350
COc1ccc(C(=Cc2cc3c(cc2[N+](=O)[O-])OCO3)C(=O)O)cc1 | 184 to 185
CC(C)NCC(O)c1cc(Cl)c(N)c(C(F)(F)F)c1 (stereo not given) | 104 to 106
CCOc1ccc(C(O)CN2CCOCC2)cc1-c1nc2c(C)cccc2c(=O)[nH]1 (stereo not given) | 145 to 147
N#Cc1c2ccccc2c(-c2cc(Br)c(O[C@@H](Cc3ccccc3)C(=O)O)c(Br)c2)c2c1sc1ccccc12 | 176 to 178
Fc1ccccc1C1=CCC(=S)Nc2ccc(Cl)cc21 | 179 to 181
COc1ccc(CC(=O)c2cccnc2)cc1OC | 188 to 191
Cc1nc2c3c(c(C(=O)NC4CC4)cc2n1C)CCC1(Cc2ccccc2C1)N3 | 247 to 248
CC1OC(=O)N2c3ccc(OCCCC(F)(F)F)cc3CCC12 (stereo not given) | 79.1 to 79.2

SMILES | melting point [°C]
O=C(Nc1ccc(CCCc2nnn[nH]2)cc1)C(F)(F)C(F)(F)C(F)(F)F | 144 to 145
CNCC1(C)Cc2c(C)c(N3CCN(c4ccc(OC)cc4)CC3)c(C)c(C)c2O1 (stereo not given) | 107 to 113
CC(C)NC(=O)OCC(=O)c1ccc(-c2ccccc2)cc1 | 133 to 134
COc1ncc([N+](=O)[O-])c(OC)n1 | 92 to 93
CCOP(=O)(/C=C/c1cn(CC)nc1OCc1ccc(OCc2nc(-c3ccco3)oc2C)c(OC)c1)OCC | 82 to 84
Cc1cc(N)ccc1-c1ccc(-c2ccc(N)cc2C)o1 | 174 to 176
CCN(CC)Cc1cc(C(=O)c2ccc(Cl)cc2)cc(C(C)(C)C)c1O | 95 to 96.5
CC(=O)Nc1ccc(-c2cc(C(=O)c3ccc(S(C)(=O)=O)cc3)sc2N2CCOCC2)cc1 | 177
Nc1ccc(S(=O)(=O)Nc2ccc(OP(N)(N)=O)cc2)cc1 | 174 to 175
Cc1c(NC(=O)c2ccc(OC[C@@H]3CCCO3)cc2)ccc2cc(CNC3CCCC3)[nH]c12 | 159 to 163
COc1ccccc1N1CCN(C(=O)Nc2nc(C)c(C)nc2OC)CC1 | 184 to 185
O=C(O)Cc1c(C(=O)O)c2cc(Oc3ccc(C(F)(F)F)cn3)ccc2n1-c1ccc(OC(F)(F)F)cc1 | 203
C#CCN(Cc1cc2c(=O)n(CCN(C)C)c(CN3CCCCC3)nc2cc1Cl)c1ccc(C(=O)OC(C)(C)C)cc1 | 75 to 77
CCCN1CCC(Cc2ccc3c(c2)c(Cc2ccc(C(=O)NS(=O)(=O)c4ccccc4C)cc2OC)cn3CCC)C1=O (stereo not given) | 98 to 115
C[C@@H](n1cnc2cc(Br)ccc2c1=O)[C@](O)(Cn1cncn1)c1ccc(F)cc1F | 109 to 112
CC(C)(C)c1ccc(C(=O)C(Cl)Cl)cc1 | 47 to 49
CC(=O)Nc1cccc(C=O)c1C | 160
CC(C)N(CCC(c1ccccc1)c1cc(CO)ccc1OCc1ccccc1)C(C)C (stereo not given) | 86.4
c1ccc(N=C2CCCc3ccccc32)cc1 | 53
CC1CCN(CC(=O)N2c3ccccc3N(C)S(=O)(=O)c3ccccc32)CC1 | 159 to 160
CCCCCCCCCCCCCCCCOc1cc(NS(=O)(=O)c2cc(N)ccc2OCCOC)c(O)cc1C | 142 to 144
O=c1[nH]c2cc(C(F)(F)F)ccc2n1-c1cc(Cl)cc(Br)c1O | 254 to 255
COc1c(C(=O)O)cccc1[N+](=O)[O-] | 224 to 226
CC(C)c1sc(C#N)c2c1C(=O)CC(C)(C)C2 | 59 to 60
CCc1nn(-c2ccccn2)c2[nH]c3cc(F)c(F)cc3c(=O)c12 | 247 to 248

SMILES | melting point [°C]
COc1cc(C(=O)Nc2ccc(N3CCCC3)cc2C(C)=O)ccc1OCc1ccccc1 | 152 to 154
Cc1ccc(-c2nn(-c3cccc4ccccc34)c(N)c2C(N)=O)cc1 | 195
CCCC(=O)c1cnc2c(CO)cccc2c1Nc1ccc(F)cc1C | 168 to 170
CCOCCOc1ccc(-c2ccc3c(c2)C=C(C(=O)OC)CCN3)cc1 | 102 to 108
O=C1c2ccccc2S(=O)(=O)N1CCCCCCOc1ccccc1 | 64 to 66
Nc1cc(Br)c(OC(F)(F)C(F)Cl)cc1[N+](=O)[O-] (stereo not given) | 90
CCOc1ccccc1C1CN=C(NC(=O)OC)N1C (stereo not given) | 137 to 138
CCOC(=O)COc1ccccc1Cc1ccc2ccccc2c1O | 124 to 125
Cc1cc(Oc2ccc(NC(=O)N3CCc4ccccc4CC3)cn2)cc(C)c1Cl | 208 to 209
Nc1ncnc2ncn(COCCCl)c12 | 184 to 186
Nc1ccc(S(=O)(=O)c2cc(Br)nc(N3CCOCC3)c2)cc1 | 244 to 245
CC(C)(C)OC(=O)NCCS(=O)(=O)Nc1ccc2c(c1)C(=O)Nc1cccnc1N2 | 195 to 198
CCCC[C@H](NC(=O)[C@H](CC(C)C)NC(=O)COc1ccc(Cl)cc1)C(=O)CSCc1ccco1 | 66 to 67
COc1c(Cl)cc(C(=O)O)c2c1OCCO2 | 172
NC(=O)Nc1ccc2c(OCc3ccccc3-c3ccccc3)cccc2c1 | 159 to 161
COCCC(=O)N(Cc1ccc(OC(F)(F)F)cc1)c1cc(Cl)cc(-c2nnn[nH]2)c1 | 146 to 151
CN(C)c1ccc(N=Nc2nc3ccccc3s2)cc1 | 243 to 246
CCCCC(N)S(=O)(=O)O (stereo not given) | 142
O=c1[nH]c2occc2c2ccccc12 | 216 to 218
O=S1NC(CC2=C(Cl)c3ccccc3CC2)=NO1 (stereo not given) | 90.5 to 91.5
CC(=O)Nc1c(Cl)cc(C(C)=O)c2c1OCCO2 | 181 to 182
CC1CCN(c2ccc([N+](=O)[O-])cc2C(=O)c2ccc(Cl)c(Cl)c2)CC1 | 116
NS(=O)(=O)c1ccccc1Cc1nnc(S)s1 | 173 to 197
CC(=O)SCC(Cc1ccccc1)C(=O)NCc1ccc(C(=O)OCc2ccccc2)cc1 (stereo not given) | 142 to 143
O=[N+]([O-])c1ccc(-c2scc3c2OCCO3)cc1 | 184 to 186

SMILES | melting point [°C]
CC(C)(C)OC(=O)CN1CC(c2ccc3ccccc3c2)SCC(N2C(=O)c3ccccc3C2=O)C1=O (stereo not given) | 208 to 210
CSC(=O)C(=O)c1ccc(NC=O)nc1 | 152 to 154
CCNC(=O)c1c(Br)cccc1[Si](C)(C)C | 121 to 122
COc1ccc2c(-c3cc(F)ccc3F)noc2c1 | 121 to 122
CC(=O)NC(NC(=O)CC(=O)OCc1ccccc1)C(=O)NCc1ccccc1 (stereo not given) | 177 to 179
CC(=O)NCc1ccc(CN2CCN(c3cc(Cl)nc(Cl)n3)CC2)cc1 | 165 to 166
CC(=O)n1ncc2c(OCC3CO3)cc(C)cc21 (stereo not given) | 105 to 107
NC1=C(c2cccc(C(F)(F)F)c2)C(=O)C(c2ccccc2)C1 (stereo not given) | 205 to 206
CC(C)(C)OC(=O)N1C[C@@H](C=O)CC1=O | 120 to 122
CCCn1c(=O)[nH]c2ccc(C(=O)c3nc(-c4cccc(C(=O)O)c4)c4ccccn34)cc2c1=O | 365
CC(=NOCCO)c1ccc(-c2ccccc2)nc1 | 76
COc1cc(OC)cc(-c2nn(C(C)c3oc4ccccc4c(=O)c3-c3cccc(F)c3)c3ncnc(N)c23)c1 (stereo not given) | 224 to 227
Cc1cc(N(C)C)ccc1Br | 47 to 49
COc1ccc(CCC(=O)C2C(=O)C=C(C)OC2=O)cc1O (stereo not given) | 115 to 116
c1ccc(-c2cccc(N(c3ccccc3)c3ccc4c(c3)Oc3ccc(N(c5ccccc5)c5cccc(-c6ccccc6)c5)cc3O4)c2)cc1 | 232
Cc1ccc(S(=O)(=O)NC(CN)C(=O)O)cc1 (stereo not given) | 225 to 226
CC(=O)OCC1OC(n2cc(C)c(NO)nc2=O)CC1F (stereo not given) | 180 to 181
Oc1ccc(C=C2C3=CC=CCC3=CCc3ccccc32)cc1 | 56.9
CCc1ncc2c3c(ccc2n1)OCC(CN1CC=C(c2c[nH]c4ccccc24)CC1)O3 (stereo not given) | 203 to 211
O=C(O)/C=C/c1ccc(OCCOC2CC2)cc1Oc1ncc(C(F)(F)F)cc1Cl | 147 to 150
CCCN(CCN1CCN(C(=O)c2cc3ccccc3[nH]2)CC1)C1CCc2c(O)cccc2C1 (stereo not given) | 169 to 170
CCCC1=C(C#N)C(c2cccc(Cl)c2Cl)c2c[nH]nc2N1 (stereo not given) | 242
CN(C)C=C(C#N)C(=O)Nc1ccc(F)cc1Cl | 138 to 139
CC1(C)C(=O)C(C)(C)c2cc3[nH]c(S)nc3cc21 | > 300
COc1ccc2c(C)c(F)ccc2c1C(F)(F)F | 97 to 99
